Paper PMC6767220, “Active Anti-Inflammatory and Hypolipidemic Derivatives of Lorazepam” (Molecules, 2019)
Where two headings read alike, the source gives them in different places.

Legend:
[1] = test system: carrageenan-induced rat paw oedema; assay: Carrageenan-induced rat paw oedema; assay type: in vivo; settings: ip, i.p. 0.15 mmol/kg, 3.5 h post administration, vs controls, read-out: % Oedema Reduction
Experimental: An aqueous solution of carrageenan was prepared (1% w/v) and 0.1 mL of this was injected i.d. into the right hind paw of female rats; the left paw served as control. The tested compounds (suspended in water with a few drops of Tween 80) were given intra peritoneally (i.p.) (0.15 mmol/kg) 5 min prior to the carrageenan injection. After 3.5 h the hind paws were weighed separately. The produced oedema was estimated as paw weight increase.

soybean lipoxygenase-1 = biological target: T1, soybean lipoxygenase-1 (Glycine max, UniProt P08170); assay: Inhibition of soybean lipoxygenase; assay type: biochemical; settings: sodium linoleate 0.1 mM, 7 min incubation; for IC50: read-out: Lipoxygenase IC50
T1 sequence (P08170 1-839): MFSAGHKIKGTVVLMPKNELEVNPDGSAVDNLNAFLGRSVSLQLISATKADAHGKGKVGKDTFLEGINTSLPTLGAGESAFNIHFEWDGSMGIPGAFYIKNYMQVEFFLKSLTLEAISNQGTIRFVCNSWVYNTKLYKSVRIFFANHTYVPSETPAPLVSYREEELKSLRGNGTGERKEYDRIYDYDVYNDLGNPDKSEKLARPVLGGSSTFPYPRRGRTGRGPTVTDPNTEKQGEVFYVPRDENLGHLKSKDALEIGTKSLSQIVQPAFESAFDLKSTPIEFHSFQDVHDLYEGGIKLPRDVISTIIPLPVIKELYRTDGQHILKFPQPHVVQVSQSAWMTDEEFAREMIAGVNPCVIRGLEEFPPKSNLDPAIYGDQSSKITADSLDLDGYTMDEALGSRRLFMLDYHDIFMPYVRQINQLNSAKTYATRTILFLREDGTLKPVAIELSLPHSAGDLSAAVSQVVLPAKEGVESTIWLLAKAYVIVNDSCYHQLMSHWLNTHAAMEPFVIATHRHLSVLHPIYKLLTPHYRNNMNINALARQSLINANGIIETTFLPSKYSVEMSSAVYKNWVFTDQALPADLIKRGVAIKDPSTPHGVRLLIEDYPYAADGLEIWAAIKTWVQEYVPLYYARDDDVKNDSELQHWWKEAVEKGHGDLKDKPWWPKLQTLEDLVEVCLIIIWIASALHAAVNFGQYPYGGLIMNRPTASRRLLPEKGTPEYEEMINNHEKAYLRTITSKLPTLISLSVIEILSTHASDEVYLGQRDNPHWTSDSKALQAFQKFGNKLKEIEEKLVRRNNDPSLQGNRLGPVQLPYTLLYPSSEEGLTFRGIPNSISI
Experimental: The reaction mixture contained the test compounds dissolved in ethanol and soybean lipoxygenase (250 U/mL) in Tris buffer (pH 9). The reaction was initiated by the addition of sodium linoleate (0.1 mM) and monitored for 7 min at 28 °C, by recording the absorbance of a conjugated diene structure at 234 nm. For the estimation of the type of inhibition, the above experiments were repeated, using sodium linoleate at 1 mM, which is higher than the saturating substrate concentration.

[2] = test system: Triton WR1339 (tyloxapol) induced hyperlipidemia; assay: Triton WR1339 (tyloxapol) induced hyperlipidemia: plasma TC, TG, LDL-C; assay type: in vivo; settings: ip, rat plasma, 24 h, tyloxapol 200 mg/kg i.p.; for inhibition in vivo at 50 µmol/kg: dose i.p. 50 µmol/kg; for inhibition in vivo at 150 µmol/kg: dose i.p. 150 µmol/kg; for inhibition in vivo at 500 µmol/kg: dose i.p. 500 µmol/kg; for inhibition in vivo at 300 µmol/kg: dose i.p. 300 µmol/kg
[3] = read-out: % Reduction LDL-C (LDL cholesterol)
[4] = read-out: % Reduction TC (total cholesterol)
[5] = read-out: % Reduction TG (triglycerides)

| Compound | inhibition in vivo at 150 µmol/kg [1] | IC50 (soybean lipoxygenase-1) | inhibition in vivo at 50 µmol/kg [2, 3] | inhibition in vivo at 50 µmol/kg [2, 4] | inhibition in vivo at 50 µmol/kg [2, 5] | melting point | other results |
| --- | --- | --- | --- | --- | --- | --- | --- |
| Cc1c(Cl)cccc1Nc1ccccc1C(=O)O [Tolfenamic acid, reference compound] | 24% | 170 µM |  |  |  |  |  |
| COc1ccc2c(c1)c(CC(=O)OC1N=C(c3ccccc3Cl)c3cc(Cl)ccc3NC1=O)c(C)n2C(=O)c1ccc(Cl)cc1 (stereo not drawn) [Compound 4, 7-Chloro-5-(2-chlorophenyl)-2-oxo-2,3-dihydro-1H-benzo[e][1,4]diazepin-3-yl 2-(1-(4-chlorobenzoyl)-5-methoxy-2-methyl-1H-indol-3-yl)acetate] | 67% | 86 µM | 60% | 59% | 59% | 189 to 191 °C |  |
| CC(C)Cc1ccc(C(C)C(=O)OC2N=C(c3ccccc3Cl)c3cc(Cl)ccc3NC2=O)cc1 (stereo not drawn) [Compound 1, 7-Chloro-5-(2-chlorophenyl)-2-oxo-2,3-dihydro-1H-benzo[e][1,4]diazepin-3-yl 2-(4-isobutylphenyl) propanoate] | 68% |  | 43% | 44% | 57% | 105 to 122 °C | Lipoxygenase % Inhibition (soybean lipoxygenase-1; compound 50 µΜ): 14%/50 µΜ; inhibition in vivo at 150 µmol/kg [2, 3]: 56%; inhibition in vivo at 150 µmol/kg [2, 4]: 82%; inhibition in vivo at 150 µmol/kg [2, 5]: 65% |
| Cc1c(Cl)cccc1Nc1ccccc1C(=O)OC1N=C(c2ccccc2Cl)c2cc(Cl)ccc2NC1=O (stereo not drawn) [Compound 5, 7-Chloro-5-(2-chlorophenyl)-2-oxo-2,3-dihydro-1H-benzo[e][1,4]diazepin-3-yl 2-((3-chloro-2-methylphenyl)amino)benzoate] | 55% |  | 48% | 56% | 57% | 206 to 207 °C | Lipoxygenase % Inhibition (soybean lipoxygenase-1; compound 100 µΜ): 22%/100 µΜ |
| COc1ccc2c(c1)c(CC(=O)O)c(C)n2C(=O)c1ccc(Cl)cc1 [Indomethacin, reference compound] | 42% |  |  |  |  |  |  |
| COc1ccc2cc(C(C)C(=O)OC3N=C(c4ccccc4Cl)c4cc(Cl)ccc4NC3=O)ccc2c1 (stereo not drawn) [Compound 2, 7-Chloro-5-(2-chlorophenyl)-2-oxo-2,3-dihydro-1H-benzo[e][1,4]diazepin-3-yl 2-(6-methoxynaphthalen-2-yl)propanoate] | 46% |  | 42% | 60% | 71% | 136 to 139 °C | Lipoxygenase IC50 (soybean lipoxygenase-1): - |
| COc1ccc2cc([C@H](C)C(=O)O)ccc2c1 [Naproxen, reference compound] | 11% |  |  |  |  |  | inhibition in vivo at 500 µmol/kg [2, 3]: 26%; inhibition in vivo at 500 µmol/kg [2, 4]: 53%; inhibition in vivo at 500 µmol/kg [2, 5]: 44% |
| CC(C)(C)c1cc(/C=C/C(=O)O)cc(C(C)(C)C)c1O [BHA, (E)-3-(3,5-di-tert-butyl-4-hydroxyphenyl)acrylic acid, reference compound] |  | > 300 µM |  |  |  |  |  |
| CC(C(=O)OC1N=C(c2ccccc2Cl)c2cc(Cl)ccc2NC1=O)c1cccc(C(=O)c2ccccc2)c1 (stereo not drawn) [Compound 3, 7-Chloro-5-(2-chlorophenyl)-2-oxo-2,3-dihydro-1H-benzo[e][1,4]diazepin-3-yl 2-(3-benzoylphenyl)propanoate] | 65% | 84 µM |  |  |  | 195 to 201 °C |  |
| CC(C)Cc1ccc(C(C)C(=O)O)cc1 (stereo not drawn) [Ibuprofen, reference compound] | 36% |  |  |  |  |  | inhibition in vivo at 300 µmol/kg [2, 3]: 42%; inhibition in vivo at 300 µmol/kg [2, 4]: 41%; inhibition in vivo at 300 µmol/kg [2, 5]: 38% |
